Columns and labels:
[1] = test system: IL-2 induced phosphorylation of STAT5 (JAK1/JAK3 activity) in human peripheral blood mononuclear cells (PBMCs); assay: Cell based assay PBMC (IL-2 stimulated pSTAT5); details: 0.5 h, rh IL-2, 30 min incubation, pSTAT5 ELISA, read-out: Cell Based assay PBMC (IL-2 stimulated pSTAT5), data displayed as pIC50 (converted)
Experimental: In addition to enzymatic potency, the effects of the inhibitors against JAK1/JAK3 activity in a cellular assay was characterized against IL-2 induced phosphorylation of STAT5 level in human peripheral blood mononuclear cells (PBMCs).
PBMC have been isolated from human healthy volunteers. Cells were seeded in wells and treated with compounds and rh IL-2. After 30 min incubation cells were lysed and pSTAT5 determined by PathScan phospho-stat5 (Tyr694) ELISA (Cell signaling). Inhibitors were tested at 11 consecutive 5-fold dilutions starting from 30 μM (30 μM-[…]) in duplicate. Calculation of IC50 data, curves and QC analysis were made using Excel tools and GraphPadPrism software. QC criteria parameters: Z′≥0.35, Hill Slope range 0.5 to 5, S:B>2.

JAK 1 [2] = molecular target: T1, JAK 1 (Homo sapiens (Human), UniProt P23458); assay: Biochemical potency JAK1, TR-FRET LANCE Ultra kinase assay (examples 1a-10a); details: ATP corresponding to Km
Text: Pharmacological Activity of the Compounds of the Invention (1a-10a).
The objective of this study was to assess the activity of novel JAK inhibitors measuring the capability of compounds to inhibit JAK1 kinase activity in a biochemical time-resolved fluorescence resonance energy transfer (TR-FRET) LANCE assay. In LANCE Ultra kinase assay in the presence of JAK1 kinase and ATP (corresponding to Km), the ULight peptide substrate (LANCE Ulight-JAK-1 (Tyr1023) Peptide, Perkin Elmer, TRF0121) was phosphorylated. It was then captured by a Eu-anti-phospho-substrate antibody (LANCE Eu-W1024 Anti-phosphotyrosine (PT66), Perkin Elmer, AD0069), which brought the Eu-chelate donor and ULight acceptor dyes into close proximity. Upon excitation at 320 nm, the Eu-chelate transfers its energy to the ULight dye, resulting in a fluorescent light emission at 665 nm. Inhibitors were tested at 11 consecutive 5-fold dilutions starting from 30 μM (30 μM-[…]) in duplicate. Calculation of IC50 data, curves and QC analysis were made using Excel tools and GraphPadPrism software. QC criteria parameters: Z′≥0.5, Hill Slope range 0.5 to 5, S:B>2.

JAK 1 [3] = molecular target: T1, JAK 1; assay: Biochemical potency on JAK1, TR-FRET LANCE Ultra kinase assay (compounds 1-92); details: ATP at Km, read-out: JAK1 inhibitory activity (pIC50 class) (converted)
In short: (§1)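 TR-FRET (LANCE Ultra) phosphorylation of ULight-JAK-1 peptide, ATP at Km: JAK1/JAK2/JAK3/TYK2 peptide 30/50/20/10 nM, ATP 20/0.7/0.2/12 μM, enzyme 0.15/0.083/0.025/0.144 ng/μL. 11-point 5-fold series from 20 μM; 1.5 h RT, EDTA stop, Eu-anti-pTyr detection 1 h; IC50 by variable-slope fit.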

JAK 3 = JAK 3 (Homo sapiens (Human), UniProt P52333); assay: Biochemical potency on JAK3, TR-FRET LANCE Ultra kinase assay (compounds 1-92); details: ATP at Km, read-out: JAK3 inhibitory activity (pIC50 class) (converted)
In short: as §1

JAK 2 = JAK 2 (Homo sapiens (Human), UniProt O60674); assay: Biochemical potency on JAK2, TR-FRET LANCE Ultra kinase assay (compounds 1-92); details: ATP at Km, read-out: JAK2 inhibitory activity (pIC50 class) (converted)
In short: as §1

TYK2 = TYK2 (Homo sapiens (Human), UniProt P29597); assay: Biochemical potency on Tyk2, TR-FRET LANCE Ultra kinase assay (compounds 1-92); details: ATP at Km, read-out: Tyk2 inhibitory activity (pIC50 class) (converted)
In short: as §1

T1 sequence (P23458 whole entry): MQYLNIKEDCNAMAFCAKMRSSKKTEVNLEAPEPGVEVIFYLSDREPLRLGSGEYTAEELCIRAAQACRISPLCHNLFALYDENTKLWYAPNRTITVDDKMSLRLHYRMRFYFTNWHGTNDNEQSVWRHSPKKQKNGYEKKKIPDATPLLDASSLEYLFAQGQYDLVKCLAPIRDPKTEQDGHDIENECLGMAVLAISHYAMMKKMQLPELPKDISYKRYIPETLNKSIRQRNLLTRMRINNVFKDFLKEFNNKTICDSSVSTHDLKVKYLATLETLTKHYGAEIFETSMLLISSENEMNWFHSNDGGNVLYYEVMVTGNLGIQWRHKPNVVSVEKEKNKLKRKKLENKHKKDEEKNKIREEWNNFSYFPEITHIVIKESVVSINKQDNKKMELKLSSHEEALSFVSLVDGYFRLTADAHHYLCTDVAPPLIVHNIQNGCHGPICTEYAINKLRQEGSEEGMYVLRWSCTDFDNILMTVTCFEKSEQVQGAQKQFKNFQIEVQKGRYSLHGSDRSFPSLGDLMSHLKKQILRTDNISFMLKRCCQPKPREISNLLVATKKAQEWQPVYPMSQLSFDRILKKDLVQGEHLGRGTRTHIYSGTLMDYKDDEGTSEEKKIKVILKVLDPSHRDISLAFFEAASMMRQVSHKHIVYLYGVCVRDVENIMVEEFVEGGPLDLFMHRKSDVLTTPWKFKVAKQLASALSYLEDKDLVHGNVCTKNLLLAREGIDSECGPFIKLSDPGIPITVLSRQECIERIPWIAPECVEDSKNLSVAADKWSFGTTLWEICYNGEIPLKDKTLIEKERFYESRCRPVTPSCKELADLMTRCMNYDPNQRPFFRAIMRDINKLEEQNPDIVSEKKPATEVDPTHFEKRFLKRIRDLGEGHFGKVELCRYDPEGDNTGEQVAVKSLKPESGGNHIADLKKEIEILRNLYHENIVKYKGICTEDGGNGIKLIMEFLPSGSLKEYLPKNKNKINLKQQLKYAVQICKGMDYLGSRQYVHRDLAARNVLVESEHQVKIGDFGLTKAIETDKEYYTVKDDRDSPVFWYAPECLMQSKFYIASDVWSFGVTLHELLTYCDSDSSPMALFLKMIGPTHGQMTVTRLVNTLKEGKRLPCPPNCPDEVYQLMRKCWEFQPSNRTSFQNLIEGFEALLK
JAK 2, sequence (O60674 whole entry): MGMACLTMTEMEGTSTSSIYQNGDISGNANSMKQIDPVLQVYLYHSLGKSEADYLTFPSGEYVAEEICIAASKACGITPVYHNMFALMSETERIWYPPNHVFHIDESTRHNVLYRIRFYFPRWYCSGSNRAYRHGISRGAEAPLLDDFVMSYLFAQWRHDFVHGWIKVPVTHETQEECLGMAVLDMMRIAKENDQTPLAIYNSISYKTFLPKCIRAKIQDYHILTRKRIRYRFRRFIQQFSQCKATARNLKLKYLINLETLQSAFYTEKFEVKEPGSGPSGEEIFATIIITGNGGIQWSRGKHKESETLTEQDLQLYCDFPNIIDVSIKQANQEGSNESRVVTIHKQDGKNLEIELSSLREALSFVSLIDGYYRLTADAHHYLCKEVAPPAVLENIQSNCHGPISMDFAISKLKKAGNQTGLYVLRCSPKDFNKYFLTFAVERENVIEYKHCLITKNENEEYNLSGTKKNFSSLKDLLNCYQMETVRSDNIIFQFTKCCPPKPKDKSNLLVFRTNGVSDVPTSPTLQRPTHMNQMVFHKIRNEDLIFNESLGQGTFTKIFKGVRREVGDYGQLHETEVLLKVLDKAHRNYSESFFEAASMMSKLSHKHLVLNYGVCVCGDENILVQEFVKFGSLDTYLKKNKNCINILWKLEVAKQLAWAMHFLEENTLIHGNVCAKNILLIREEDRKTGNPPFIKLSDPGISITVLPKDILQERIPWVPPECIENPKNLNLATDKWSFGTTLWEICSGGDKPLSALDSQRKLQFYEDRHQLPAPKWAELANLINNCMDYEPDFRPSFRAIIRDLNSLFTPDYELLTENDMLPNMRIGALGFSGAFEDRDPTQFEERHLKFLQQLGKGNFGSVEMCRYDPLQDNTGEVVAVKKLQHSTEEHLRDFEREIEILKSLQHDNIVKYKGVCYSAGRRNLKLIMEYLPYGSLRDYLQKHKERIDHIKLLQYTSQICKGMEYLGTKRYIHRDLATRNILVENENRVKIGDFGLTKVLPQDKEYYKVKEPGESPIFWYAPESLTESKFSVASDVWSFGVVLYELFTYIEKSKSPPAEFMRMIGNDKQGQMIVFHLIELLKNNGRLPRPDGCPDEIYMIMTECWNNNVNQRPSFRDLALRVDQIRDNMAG
JAK 3, sequence (P52333 whole entry): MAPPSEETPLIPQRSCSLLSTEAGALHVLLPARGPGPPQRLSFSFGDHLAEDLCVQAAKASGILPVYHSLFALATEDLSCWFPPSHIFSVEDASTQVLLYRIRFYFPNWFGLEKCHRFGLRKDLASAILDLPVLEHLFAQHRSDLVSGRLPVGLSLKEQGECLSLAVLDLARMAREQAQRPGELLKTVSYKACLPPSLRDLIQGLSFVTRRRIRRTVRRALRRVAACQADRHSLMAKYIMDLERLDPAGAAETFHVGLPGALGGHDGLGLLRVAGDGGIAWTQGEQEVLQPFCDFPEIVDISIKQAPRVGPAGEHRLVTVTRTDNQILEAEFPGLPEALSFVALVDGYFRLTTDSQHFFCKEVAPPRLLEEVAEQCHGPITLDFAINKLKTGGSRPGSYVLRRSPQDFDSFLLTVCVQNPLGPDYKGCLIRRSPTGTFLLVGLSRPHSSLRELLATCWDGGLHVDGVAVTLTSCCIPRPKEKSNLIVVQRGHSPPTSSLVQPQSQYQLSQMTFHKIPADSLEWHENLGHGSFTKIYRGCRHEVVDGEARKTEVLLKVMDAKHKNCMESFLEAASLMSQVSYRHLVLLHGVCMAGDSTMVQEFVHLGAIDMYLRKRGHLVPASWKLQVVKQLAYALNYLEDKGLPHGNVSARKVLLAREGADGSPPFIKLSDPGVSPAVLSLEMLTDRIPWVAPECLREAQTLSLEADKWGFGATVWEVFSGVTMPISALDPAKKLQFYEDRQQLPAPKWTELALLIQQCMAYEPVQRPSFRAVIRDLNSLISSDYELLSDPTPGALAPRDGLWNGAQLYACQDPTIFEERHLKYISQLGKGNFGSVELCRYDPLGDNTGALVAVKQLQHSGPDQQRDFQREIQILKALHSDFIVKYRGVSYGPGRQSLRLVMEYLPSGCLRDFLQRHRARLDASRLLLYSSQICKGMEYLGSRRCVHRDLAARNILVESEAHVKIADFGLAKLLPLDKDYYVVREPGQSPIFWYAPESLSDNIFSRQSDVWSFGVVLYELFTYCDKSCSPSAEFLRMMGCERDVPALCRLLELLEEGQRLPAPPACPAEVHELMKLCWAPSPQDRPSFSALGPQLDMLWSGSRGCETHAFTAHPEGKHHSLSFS
TYK2, sequence (P29597 whole entry): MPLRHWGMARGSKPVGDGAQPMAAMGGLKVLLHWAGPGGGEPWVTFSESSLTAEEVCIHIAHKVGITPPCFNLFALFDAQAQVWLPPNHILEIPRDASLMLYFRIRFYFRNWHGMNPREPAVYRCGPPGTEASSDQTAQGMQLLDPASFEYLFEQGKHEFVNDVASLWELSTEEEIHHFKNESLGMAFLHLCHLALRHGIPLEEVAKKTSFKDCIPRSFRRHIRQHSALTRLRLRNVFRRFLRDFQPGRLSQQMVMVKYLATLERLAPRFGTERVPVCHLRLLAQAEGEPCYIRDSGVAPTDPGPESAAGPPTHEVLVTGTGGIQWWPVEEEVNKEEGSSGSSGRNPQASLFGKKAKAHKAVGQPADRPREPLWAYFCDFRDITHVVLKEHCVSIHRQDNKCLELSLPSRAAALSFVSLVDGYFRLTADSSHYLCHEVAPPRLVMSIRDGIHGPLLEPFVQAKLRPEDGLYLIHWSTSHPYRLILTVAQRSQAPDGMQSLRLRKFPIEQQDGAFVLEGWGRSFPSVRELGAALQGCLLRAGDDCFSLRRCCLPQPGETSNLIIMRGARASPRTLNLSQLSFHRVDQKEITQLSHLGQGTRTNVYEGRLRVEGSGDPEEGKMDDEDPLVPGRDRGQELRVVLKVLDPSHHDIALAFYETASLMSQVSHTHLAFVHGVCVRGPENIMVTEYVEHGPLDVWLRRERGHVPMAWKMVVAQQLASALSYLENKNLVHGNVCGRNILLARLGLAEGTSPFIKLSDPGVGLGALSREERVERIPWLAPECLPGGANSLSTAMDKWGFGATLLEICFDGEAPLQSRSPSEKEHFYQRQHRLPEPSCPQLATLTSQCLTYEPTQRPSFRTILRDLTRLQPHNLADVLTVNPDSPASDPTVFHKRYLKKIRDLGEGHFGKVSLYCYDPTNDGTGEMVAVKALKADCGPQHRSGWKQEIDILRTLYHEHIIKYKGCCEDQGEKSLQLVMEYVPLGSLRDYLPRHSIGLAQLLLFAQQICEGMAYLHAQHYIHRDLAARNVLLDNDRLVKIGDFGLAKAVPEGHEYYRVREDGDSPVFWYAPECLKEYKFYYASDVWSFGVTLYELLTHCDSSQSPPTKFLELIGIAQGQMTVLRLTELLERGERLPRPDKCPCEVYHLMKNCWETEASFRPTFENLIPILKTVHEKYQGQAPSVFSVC

Row | Biochemical Potency JAK 1 (pIC50) (JAK 1 [2]) | IC50 (JAK 1 [3]) [nM] | IC50 (JAK 3) [nM] | IC50 (JAK 2) [nM] | IC50 (TYK2) [nM] | Compound | IC50 [1] [nM]
1 | 7.3 | – | – | – | – | CN(C)C(=O)Cn1nc(-c2cc(Cl)ccc2OC(F)F)c2cc(-c3cnn4cccnc34)cnc21 [Example 2a, 2-(3-(5-chloro-2-(difluoromethoxy)phenyl)-5-(pyrazolo[1,5-a]pyrimidin-3-yl)-1H-pyrazolo[3,4-b]pyridin-1-yl)-N,N-dimethylacetamide] | 631
2 | 6.7 | – | – | – | – | Cc1nn(Cc2ccc(Cl)cc2F)c2cc(-c3cnc4cccnn34)cnc12 [Example 8a, 1-(4-chloro-2-fluorobenzyl)-6-(imidazo[1,2-b]pyridazin-3-yl)-3-methyl-1H-pyrazolo[4,3-b]pyridine] | 794
3 | 8.1 | – | – | – | – | COC(=O)c1nn(-c2cc(Cl)ccc2OC(F)F)c2cc(-c3cnn4cccnc34)cnc12 [Example 3a, methyl 1-(5-chloro-2-(difluoromethoxy)phenyl)-6-(pyrazolo[1,5-a]pyrimidin-3-yl)-1H-pyrazolo[4,3-b]pyridine-3-carboxylate] | –
4 | 7.7 | – | – | – | – | O=C(O)Cc1nn(-c2cc(Cl)ccc2OC(F)F)c2cc(-c3cnn4cccnc34)cnc12 [Example 5a, 2-(1-(5-chloro-2-(difluoromethoxy)phenyl)-6-(pyrazolo[1,5-a]pyrimidin-3-yl)-1H-pyrazolo[4,3-b]pyridin-3-yl)acetic acid] | 6310
5 | 8.5 | – | – | – | – | Cc1nn(-c2cc(Cl)ccc2OC(F)F)c2cc(-c3cnn4cccnc34)ncc12 [Example 7a, 1-(5-chloro-2-(difluoromethoxy)phenyl)-3-methyl-6-(pyrazolo[1,5-a]pyrimidin-3-yl)-1H-pyrazolo[4,3-c]pyridine] | 39.8
6 | 6.0 | – | – | – | – | Cc1nn(C2CCCN(C(=O)CC#N)C2)c2cc(-c3cnn4cccnc34)cnc12 (stereo not drawn) [Example 10a, 3-(3-(3-methyl-6-(pyrazolo[1,5-a]pyrimidin-3-yl)-1H-pyrazolo[4,3-b]pyridin-1-yl)piperidin-1-yl)-3-oxopropanenitrile] | 6310
7 | 8.1 | – | – | – | – | OCc1nn(-c2cc(Cl)ccc2OC(F)F)c2cc(-c3cnn4cccnc34)cnc12 [Example 1a, (1-(5-chloro-2-(difluoromethoxy)phenyl)-6-(pyrazolo[1,5-a]pyrimidin-3-yl)-1H-pyrazolo[4,3-b]pyridin-3-yl)methanol] | 50.1
8 | 7.8 | – | – | – | – | Cc1nn(-c2cc(Cl)ccc2OC(F)F)c2cc(-c3cnn4cccnc34)cnc12 [Example 9a, 1-(5-chloro-2-(difluoromethoxy)phenyl)-3-methyl-6-(pyrazolo[1,5-a]pyrimidin-3-yl)-1H-pyrazolo[4,3-b]pyridine] | 50.1
9 | – | ≤ 5.01 | ≤ 5.01 | ≤ 5.01 | > 50.1 | COc1cc(C(C)NS(C)(=O)=O)ccc1-n1nc(C)c2cnc(-c3cnn4cccnc34)cc21 (stereo not drawn) [Example 62, N-(1-(3-methoxy-4-(3-methyl-6-(pyrazolo[1,5-a]pyrimidin-3-yl)-1H-pyrazolo[4,3-c]pyridin-1-yl)phenyl)ethyl)methanesulfonamide] | –
10 | 8.4 | – | – | – | – | Cc1nn(-c2cc(Cl)ccc2OC(F)F)c2cc(-c3cnc4cccnn34)ncc12 [Example 6a, 1-(5-chloro-2-(difluoromethoxy)phenyl)-6-(imidazo[1,2-b]pyridazin-3-yl)-3-methyl-1H-pyrazolo[4,3-c]pyridine] | –
11 | – | 5.01 to 50.1 | 5.01 to 50.1 | 5.01 to 50.1 | 5.01 to 50.1 | COc1cc(NS(C)(=O)=O)ccc1-n1nc(NC(=O)C2CCN(C)C2)c2cnc(-c3cnn4cccnc34)cc21 (racemic) [Example 42, N-(1-(2-methoxy-4-(methylsulfonamido)phenyl)-6-(pyrazolo[1,5-a]pyrimidin-3-yl)-1H-pyrazolo[4,3-c]pyridin-3-yl)-1-methylpyrrolidine-3-carboxamide] | –
12 | – | 5.01 to 50.1 | 5.01 to 50.1 | 5.01 to 50.1 | 5.01 to 50.1 | CCCS(=O)(=O)Nc1ccc(-n2nc(NC(=O)CCN3CCN(C)CC3)c3cnc(-c4cnn5cccnc45)cc32)c(OC)c1 [Example 82, N-(1-(2-methoxy-4-(propylsulfonamido)phenyl)-6-(pyrazolo[1,5-a]pyrimidin-3-yl)-1H-pyrazolo[4,3-c]pyridin-3-yl)-3-(4-methylpiperazin-1-yl)propanamide] | –
13 | – | > 50.1 | > 50.1 | > 50.1 | > 50.1 | CNC(=O)c1ccc(-n2nc(C)c3cnc(-c4cnn5cccnc45)cc32)c(OC)c1 [Example 19, 3-methoxy-N-methyl-4-(3-methyl-6-(pyrazolo[1,5-a]pyrimidin-3-yl)-1H-pyrazolo[4,3-c]pyridin-1-yl)benzamide] | –
14 | – | ≤ 5.01 | ≤ 5.01 | ≤ 5.01 | 5.01 to 50.1 | CNc1nn(-c2ccc(CNS(C)(=O)=O)cc2OC)c2cc(-c3cnn4cccnc34)ncc12 [Example 55, N-(3-methoxy-4-(3-(methylamino)-6-(pyrazolo[1,5-a]pyrimidin-3-yl)-1H-pyrazolo[4,3-c]pyridin-1-yl)benzyl)methanesulfonamide] | –
15 | – | ≤ 5.01 | ≤ 5.01 | ≤ 5.01 | 5.01 to 50.1 | COc1cc(NS(C)(=O)=O)ccc1-n1nc(C(=O)NCCN2CCOCC2)c2cnc(-c3cnn4cccnc34)cc21 [Example 45, 1-(2-methoxy-4-(methylsulfonamido)phenyl)-N-(2-morpholinoethyl)-6-(pyrazolo[1,5-a]pyrimidin-3-yl)-1H-pyrazolo[4,3-c]pyridine-3-carboxamide] | –
16 | 7.8 | – | – | – | – | CN(C)C(=O)Cc1nn(-c2cc(Cl)ccc2OC(F)F)c2cc(-c3cnn4cccnc34)cnc12 [Example 4a, 2-(1-(5-chloro-2-(difluoromethoxy)phenyl)-6-(pyrazolo[1,5-a]pyrimidin-3-yl)-1H-pyrazolo[4,3-b]pyridin-3-yl)-N,N-dimethylacetamide] | 316

From patent publication US20240209001A1, “HETEROCYCLIC DERIVATIVES AS JANUS KINASE INHIBITORS” (CHIESI FARMACEUTICI S.P. A., priority 2021, published 2024)
